Experimental data taken from publication PMC7932537, “Quantitative profiling of protease specificity” (PLoS Computational Biology, 2021).

Tests used:
[1] = target: MMP-9 (Homo sapiens, UniProt P14780); assay: K(obs) of individual phage substrates (set of 1369); assay type: biochemical; conditions: MMP9; individual phage substrate of the set of 1369 peptides; dash in sequence marks cleavage position
[2] = tested on: MMP-9; assay: Substrate phage display with NGS: relative probability (RP) of P3-P1' tetramer clusters; assay type: biochemical, human; conditions: MMP9; RP of the substrate's P3-P1' tetramer, substrate phage display with NGS;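 further: ratio of tetramer probability after protease selection to that in naive phage library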
[3] = target: T1, MMP-2 (Homo sapiens, UniProt P08253); assay: K(obs) of individual phage substrates (set of 1369); assay type: biochemical; conditions: MMP2; individual phage substrate from the set of 1369 peptides; hyphen in the sequence marks the cleavage position
T1 sequence (P08253 110-660): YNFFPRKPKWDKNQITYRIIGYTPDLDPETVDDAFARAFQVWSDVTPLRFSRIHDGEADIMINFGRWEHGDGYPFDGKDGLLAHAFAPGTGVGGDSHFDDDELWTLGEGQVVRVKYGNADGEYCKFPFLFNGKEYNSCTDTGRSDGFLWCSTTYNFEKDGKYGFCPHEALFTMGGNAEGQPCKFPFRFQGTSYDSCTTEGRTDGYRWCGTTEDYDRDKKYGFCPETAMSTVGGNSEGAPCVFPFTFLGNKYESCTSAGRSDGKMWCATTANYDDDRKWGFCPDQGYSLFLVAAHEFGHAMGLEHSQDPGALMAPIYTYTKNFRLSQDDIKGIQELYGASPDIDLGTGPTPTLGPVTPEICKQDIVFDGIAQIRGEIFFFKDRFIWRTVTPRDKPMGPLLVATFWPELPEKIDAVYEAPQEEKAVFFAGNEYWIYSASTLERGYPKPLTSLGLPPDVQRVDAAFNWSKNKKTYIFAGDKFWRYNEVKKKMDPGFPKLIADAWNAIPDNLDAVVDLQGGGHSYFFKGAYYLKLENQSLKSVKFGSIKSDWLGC

MMP-9 (Homo sapiens, UniProt P14780), sequence (P14780 94-707): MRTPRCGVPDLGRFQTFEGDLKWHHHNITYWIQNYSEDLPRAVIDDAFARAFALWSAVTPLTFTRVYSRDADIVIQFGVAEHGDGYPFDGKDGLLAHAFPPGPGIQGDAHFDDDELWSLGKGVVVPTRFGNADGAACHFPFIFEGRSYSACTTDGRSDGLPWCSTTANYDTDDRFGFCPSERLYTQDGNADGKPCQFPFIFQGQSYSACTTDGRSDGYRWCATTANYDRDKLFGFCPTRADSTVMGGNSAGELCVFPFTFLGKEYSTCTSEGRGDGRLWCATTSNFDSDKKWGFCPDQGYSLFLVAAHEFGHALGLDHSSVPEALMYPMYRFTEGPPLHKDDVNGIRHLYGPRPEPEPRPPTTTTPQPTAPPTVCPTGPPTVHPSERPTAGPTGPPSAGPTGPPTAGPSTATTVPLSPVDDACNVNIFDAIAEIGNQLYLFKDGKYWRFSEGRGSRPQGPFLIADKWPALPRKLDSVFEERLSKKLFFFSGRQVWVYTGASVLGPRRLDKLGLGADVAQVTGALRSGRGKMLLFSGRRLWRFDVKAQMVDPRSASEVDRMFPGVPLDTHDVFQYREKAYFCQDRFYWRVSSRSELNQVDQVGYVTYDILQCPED

Kobs [1] [M⁻¹ s⁻¹] | Kobs [3] [M⁻¹ s⁻¹] | Substance | relative probability (RP) [2]
10866.7 | 12792.1 | GAPAK-LRTAS | 39.5582
5090.5 | 12792.1 | IFPAN-HTASG | 10.2001
113.394 | 4082.43 | MPMGR-LTASG | 2.466
12792.1 | 12792.1 | GYPAG-LRTAS | 47.2274
12792.1 | 5667.28 | SGPRL-YIGTA | 32.3351
10866.7 | 12792.1 | LIPAW-LTASG | 46.2228
12792.1 | 12792.1 | HAPSL-YTASG | 23.6706
113.394 | 10866.7 | ATLAA-WTASG | 1.553
1981.53 | 1196.62 | RMPRQ-VTASG | 25.107
12792.1 | 12792.1 | SYPRA-YTASG | 46.2238
12792.1 | 12792.1 | GSPLP-FITAS | 46.6229
0 | 7015.91 | MALSS-LTASG | 4.987
12792.1 | 12792.1 | SGPRN-LAVTA | 48.2698
0 | 12792.1 | MSLAT-LTASG | 0.7406
12792.1 | 12792.1 | NSPMS-LTASG | 47.1282
8941.32 | 27.918 | HVPRQ-VTASG | 25.107
2344.36 | 12792.1 | SGPAS-FSVTA | 30.2578
12792.1 | 12792.1 | ERPFF-LTASG | 36.9909
12792.1 | 12792.1 | GEPSA-YRTAS | 46.6524
12792.1 | 12792.1 | VKPSG-VTASG | 31.8733
1870.4 | 12792.1 | LQIGH-LTASG | 14.7862
12792.1 | 12792.1 | YGPRA-ITASG | 47.8426
9740.44 | 12792.1 | TQPSP-FTASG | 37.3217
8321.48 | 1660.66 | GLVWN-LWTAS | 38.922

Kobs [1] [M⁻¹ s⁻¹] | Kobs [3] [M⁻¹ s⁻¹] | Substance | relative probability (RP) [2]
2837.92 | 12792.1 | SGPAS-VRNTA | 25.8589
12792.1 | 12792.1 | FIPFP-FTASG | 42.1583
7815.03 | 12792.1 | GRPRS-LLTAS | 44.7764
12792.1 | 12792.1 | GWPSE-LRTAS | 41.3266
12792.1 | 10866.7 | TLIRY-LTASG | 33.2843
1030.73 | 12792.1 | VQLAY-FTASG | 0.5079
12792.1 | 12792.1 | SGPRD-ILATA | 41.2501
12792.1 | 12792.1 | GRPVN-LTTAS | 46.0636
12792.1 | 12792.1 | GMVLG-LHTAS | 34.6877
4922.1 | 12792.1 | RVVAN-LTASG | 32.1971
1981.53 | 6396.07 | HVVAK-MTASG | 0.5992
12792.1 | 12792.1 | FKAVA-LTASG | 32.1946
1239.69 | 12792.1 | YSTLR-TASGA | 0
12792.1 | 12792.1 | RAPVA-FTASG | 39.0112
0 | 12792.1 | SVLSK-LTASG | 0.5605
6131.32 | 7815.03 | SGPSG-WTATA | 29.7011
9740.44 | 3741.87 | GRPSA-MTTAS | 46.4881
12792.1 | 12792.1 | SGPKQ-LRVTA | 43.3387
12792.1 | 12792.1 | SGPRG-VTVTA | 42.1832
12792.1 | 12792.1 | QPPHA-FTASG | 39.4048
3344.37 | 12792.1 | WSPSS-YTASG | 41.6306
5667.28 | 3850.82 | GRPAQ-MKTAS | 38.7952
12792.1 | 6131.32 | SGVRG-LFTTA | 42.3063
12792.1 | 12792.1 | LAPRY-WTASG | 27.5973

Kobs [1] [M⁻¹ s⁻¹] | Kobs [3] [M⁻¹ s⁻¹] | Substance | relative probability (RP) [2]
690.17 | 12792.1 | KQLAS-LTASG | 2.45
4205.91 | 10866.7 | HYVRA-HTASG | 18.814
12792.1 | 12792.1 | SGPRT-LVVTA | 42.2705
1112.44 | 323.705 | TSARK-LTASG | 0
12792.1 | 5090.5 | SGPKL-LTASG | 35.7561
12792.1 | 12792.1 | WRPFS-YTASG | 43.4281
12792.1 | 1981.53 | SGPKF-LVMTA | 42.7484
1513.13 | 12792.1 | GHIAW-FTASG | 7.9655
1030.73 | 12792.1 | ILLSP-LTASG | 4.611
12792.1 | 12792.1 | WQVRY-LTASG | 32.3577
3253.29 | 3637.04 | SGPRS-HRVTA | 23.1314
12792.1 | 12792.1 | SRPVY-LTASG | 32.5397
1610.61 | 12792.1 | SSVSN-LTASG | 31.0505
12792.1 | 12792.1 | VKPSK-LTASG | 38.9571
1112.44 | 2687.73 | GRLLA-MHTAS | 12.6533
726.013 | 12792.1 | RKLAF-LTASG | 0.6348
7386.83 | 5889.62 | SGPRF-LLDTA | 42.4535
12792.1 | 4205.91 | SGPKL-LYGTA | 35.7561
2916.17 | 1030.73 | SGVRD-LYFTA | 30.416
12792.1 | 12792.1 | TPPVE-LTASG | 35.1044
12792.1 | 12792.1 | GTPRN-IKTAS | 46.5688
619.843 | 1327.88 | QRVRG-VTASG | 13.8249
